Patent publication US5252463A, “Clipsin, a chymotrypsin-like protease and method of using same” (The Du Pont Merck Pharmaceutical Company, priority 1990, dated 1993)
Where two headings read alike, the source gives them in different places. Starred links: 1 amine or outer side, 2 acyl side, 3 side chain; linkers in the order of their positions; H or OH if unused. Residues, ends and D or L forms follow the SMILES beside them. *: point of attachment. pNA = O=[N+]([O-])c1ccc(N*)cc1; Suc = O=C(CCC(=O)[*:2])[*:1]; MeOSuc = COC(=O)CCC(=O)*

Experiments:
clipsin [1] = biological target: T1, clipsin (Rattus norvegicus, UniProt P09650); assay: Enzymography: clipsin activity in 125I-gelatin-containing polyacrylamide gels; assay type: biochemical; set-up: Mr 25,000 band in gelatin enzymography; conditions: for Inhibition of clipsin by peptide boronic acids (in words): 10 μM final concentrations
T1 sequence (P09650 21-260): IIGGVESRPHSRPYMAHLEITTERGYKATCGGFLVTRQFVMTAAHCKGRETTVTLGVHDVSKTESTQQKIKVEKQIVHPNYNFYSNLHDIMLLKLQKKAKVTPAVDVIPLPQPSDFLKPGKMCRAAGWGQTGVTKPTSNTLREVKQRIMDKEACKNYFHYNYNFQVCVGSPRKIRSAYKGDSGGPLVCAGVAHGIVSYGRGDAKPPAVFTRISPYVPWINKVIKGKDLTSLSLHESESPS

[2] = system: major Coomassie Blue-detectable proteins from rat cortical membranes; assay: Breakdown of rat cortical membrane proteins by Mg2+ extract, Coomassie Blue-stained gels; assay type: biochemical; conditions: inhibitor included in the incubation
Protocol: (§1) Mg^2+ extract at 60% (about 4.2 nM clipsin final) was incubated with a crude membrane fraction from adult rat cortex (2.8 mg/mL protein final; Siman et al., (1989) J. Neurosci. 9, 1579-1590). Proteolysis reactions were performed at 37° C. for 1 h before quenching the reactions with sodium dodecyl sulfate-containing electrophoresis sample buffer and heating the samples to 90° C. for 5 min. Overall breakdown of proteins were determined by Coomassie Blue staining of gels, whereas β-APP degradation was assessed by Western blotting of identical gels. β-APP was visualized as 110-130-kDa bands using antiserum 385 as described previously (Siman et al., (1989) Neuron 3, 275-285). β-APP-immunostained polypeptides on Western blots and the corresponding major Coomassie Blue-stained protein bands on sodium dodecyl sulfate-containing polyacrylamide gels were quantified by scanning laser densitometry.
We began looking for potential endogenous substrates of clipsin by incubating rat cortical membranes with Mg^2+ extract and measuring loss of the major protein bands following separation of the incubated samples by polyacrylamide gel electrophoresis. […] No other bands varied more than 25%, and no protease activity endogenous to cortical membranes could be detected when comparing 37° C. incubated membranes with parallel samples kept on ice.

β-APP = β-APP degradation in rat cortical membranes by Mg2+ extract, Western blot with antiserum 385; assay type: biochemical; conditions: inhibitor included in the incubation
Protocol: as §1

clipsin [3] = biological target: T1, clipsin; assay: In vitro chromogenic substrate assay: inhibition of Suc-Ala-Ala-Pro-Phe-p-nitroanilide hydrolysis by Mg2+ extract; assay type: biochemical; set-up: Forebrains from 5-day-old rats were stripped of meninges and homogenized; from tissue; host or cells: forebrain of 5-day-old rats, membrane-associated, 1M MgCl2 extract (partially enriched); conditions: for remaining activity at 10 µM: read-out: Relative Clipsin Activity (ΔOD as a percentage of the control value)
[4] = system: T2, C[C@H](NC(=O)CCC(=O)O)C(=O)N[C@@H](C)C(=O)N1CCC[C@H]1C(=O)N[C@@H](Cc1ccccc1)C(=O)Nc1ccc([N+](=O)[O-])cc1; assay: Hydrolysis kinetics of tetrapeptide p-nitroanilide substrates by chymotrypsin; assay type: biochemical, bovine; conditions: other: chymotrypsin, pH 7.5, 50° C., 10% dimethyl sulfoxide
T2 construct: mature chains cut from chymotrypsinogen A
From the text: (§2) Correlation coefficients were greater than 0.99.

[5] = system: T3, COC(=O)CCC(=O)N[C@@H](C)C(=O)N[C@@H](C)C(=O)N1CCC[C@H]1C(=O)N[C@@H](CCSC)C(=O)Nc1ccc([N+](=O)[O-])cc1; assay: as above; assay type: biochemical, bovine; conditions: other: chymotrypsin, pH 7.5, 50° C., 10% dimethyl sulfoxide
T3 construct: mature chains cut from chymotrypsinogen A
From the text: as §2

[6] = biological target: T4, human leukocyte cathepsin G (Homo sapiens, UniProt P08311); assay: Hydrolysis kinetics of tetrapeptide p-nitroanilide substrates by cathepsin G; assay type: biochemical; conditions: pH 7.5, 50° C.; for Km: 10% dimethyl sulfoxide; for kcat: α-1-AChy-titrated enzyme concentration
T4 sequence (P08311 21-244): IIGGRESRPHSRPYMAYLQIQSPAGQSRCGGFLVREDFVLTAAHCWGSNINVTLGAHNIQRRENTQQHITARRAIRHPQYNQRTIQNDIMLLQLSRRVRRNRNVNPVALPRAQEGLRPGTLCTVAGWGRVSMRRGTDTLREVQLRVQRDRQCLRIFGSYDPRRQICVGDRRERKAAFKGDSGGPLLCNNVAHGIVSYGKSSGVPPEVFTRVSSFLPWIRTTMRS
From the text: as §2

bovine chymotrypsin [7] = biological target: T5, bovine chymotrypsin (Bos taurus, UniProt P00766); assay: Hydrolysis kinetics of tetrapeptide p-nitroanilide substrates by chymotrypsin; assay type: biochemical; conditions: ratio chymotrypsin/clipsin for the same substrate
T5 construct: mature chains cut from chymotrypsinogen A
From the text: as §2

human cathepsin G = conditions: cited from earlier work
bovine chymotrypsin [8] = biological target: T5, bovine chymotrypsin; conditions: cited from earlier work
clipsin [9] = biological target: T1, clipsin; assay: Association rate constant for α-1-AChy binding to clipsin, second-order conditions; set-up: Mr 25,000 band in gelatin enzymography; conditions: equimolar clipsin and α-1-AChy
Protocol: The association rate constant for α-1-AChy binding to clipsin was determined under second-order conditions as described previously for α-1-AChy binding to other chymotrypsin-like proteases (Beatty et al., (1980) J. Biol. Chem. 255, 3931-3934). Using the titrated concentration of clipsin, an equimolar concentration of α-1-AChy was preincubated with Mg^2+ extract for various periods of time before addition of 2 mM substrate which stopped the reaction and was used to measure residual enzyme activity. The half-life time of reaction (t1/2) was calculated from a plot of .nu.^-1 versus t, and in turn used to calculate the association rate constant ^k assoc through the following: kassoc =1/t1/2 [Eγ], where [Eγ] stands for the total enzyme concentration (Beatty et al., (1980) J. Biol. Chem. 255, 3931-3934).
Using the titrated value for clipsin concentration in the Mg^2+ extract, we combined equimolar concentrations of clipsin and α-1-AChy to determine the association rate constant between these two proteins, as described previously (Equation 4 in Beatty et al., (1980) J. Biol. Chem. 255, 3931-3934). The ^k assoc was determined to be 2.9×10^6 M^-1 s^-1, a value falling between those determined previously for chymotrypsin and cathepsin G (Beatty et al., (1980) J. Biol. Chem. 255, 3931-3934).

clipsin [10] = biological target: T1, clipsin; assay: Titration of clipsin activity in Mg2+ extract with α-1-AChy in vitro; assay type: biochemical; set-up: Mr 25,000 band in gelatin enzymography; conditions: 20% Mg2+ extract
[11] = inhibitor 10 μM, 20% Mg2+ extract (1.4 nM clipsin), 2 mM Suc-Ala-Ala-Pro-Phe-p-nitroanilide, 1 h, 37° C., average of three

## O=S(=O)(F)Cc1ccccc1 [phenylmethylsulfonyl fluoride]
Clipsin [1]
  Inhibition of clipsin activity by class-specific protease inhibitors (in words): inhibited clipsin activity

## COC(=O)CCC(=O)N[C@@H](C)C(=O)N[C@@H](C)C(=O)N1CCC[C@H]1C(=O)N[C@@H](Cc1ccccc1)B(O)O [Sample 2, MeO-Suc-Ala-Ala-Pro-boro-Phe-OH]
[2]
  Blocking of the clipsin-induced decrease of the protein doublet (in words): could be blocked
β-APP
  Blocking of the clipsin-induced loss of β-APP immunoreactivity (in words): specifically blocked
Clipsin [3]; [11]
  remaining activity at 10 µM: 8%
Clipsin [1]; enzymography
  Inhibition of clipsin by peptide boronic acids (in words): preferentially inhibited

## bovine chymotrypsin (Bos taurus)
[4]
  Km: 130 µM
  kcat: 120 s⁻¹
  kcat/Km: 910,000 M^-1 S^-1
[5]
  Km: 1800 µM
  kcat: 80 s⁻¹
  kcat/Km: 44,000 M^-1 S^-1

## C[C@H](NC(=O)CCC(=O)O)C(=O)N[C@@H](C)C(=O)N1CCC[C@H]1C(=O)N[C@@H](Cc1ccccc1)C(=O)Nc1ccc([N+](=O)[O-])cc1 [R--Phe-p-nitroanilide, Suc-Ala-Ala-Pro-Phe-p-nitroanilide] (Suc-AAPF-pNA)
[6]
  kcat /Km: 4,800 M^-1 S^-1
  Km: 3300 µM
  kcat: 16 s⁻¹
Bovine chymotrypsin [7]
  kcat /Km of chymotrypsin relative to clipsin: 16 fold

## O=C(O)CI [iodoacetic acid]
Clipsin [1]
  Inhibition of clipsin activity by class-specific protease inhibitors (in words): not inhibited

## COC(=O)CCC(=O)N[C@@H](C)C(=O)N[C@@H](C)C(=O)N1CCC[C@H]1C(=O)N[C@H](B(O)O)C(C)C [Sample 4, MeO-Suc-Ala-Ala-Pro-boro-Val-OH]
Clipsin [3]; [11]
  remaining activity at 10 µM: 94%
Clipsin [1]; enzymography
  Inhibition of clipsin by peptide boronic acids (in words): lack of inhibition

## COC(=O)CCC(=O)N[C@@H](C)C(=O)N[C@@H](C)C(=O)N1CCC[C@H]1C(=O)N[C@@H](C)B(O)O [Sample 3, MeO-Suc-Ala-Ala-Pro-boro-Ala-OH]
Clipsin [3]; [11]
  remaining activity at 10 µM: 97%
Clipsin [1]; enzymography
  Inhibition of clipsin by peptide boronic acids (in words): lack of inhibition

## Bz-Pro-Phe-boro-Arg-OH [Sample 5]
Clipsin [3]; [11]
  Relative Clipsin Activity (ΔOD as a percentage of the control value): 84%
Clipsin [1]; enzymography
  Inhibition of clipsin by peptide boronic acids (in words): only marginally

## CCN1C(=O)C=CC1=O [N-ethylmaleimide]
Clipsin [1]
  Inhibition of clipsin activity by class-specific protease inhibitors (in words): not inhibited

## COC(=O)CCC(=O)N[C@@H](C)C(=O)N[C@@H](C)C(=O)N1CCC[C@H]1C(=O)N[C@@H](CCSC)C(=O)Nc1ccc([N+](=O)[O-])cc1 [R'--Met-p-nitroanilide] (MeOSuc-AAPM-pNA)
[6]
  kcat /Km: 4,300 M^-1 S^-1
  Km: 540 µM
  kcat: 2.3 s⁻¹
Bovine chymotrypsin [7]
  kcat /Km of chymotrypsin relative to clipsin: 8.5 fold

## c1cnc2c(c1)ccc1cccnc12 [1,10-0-phenanthroline]
Clipsin [1]; enzymography, 1 mM EDTA present
  Inhibition of clipsin activity by class-specific protease inhibitors (in words): Lack of complete inhibition

B1: α-1-antichymotrypsin (protein, UniProt P01011 24-423, looked up)
Alpha-1-antichymotrypsin: HPNSPLDEENLTQENQDRGTHVDLGLASANVDFAFSLYKQLVLKAPDKNVIFSPLSISTALAFLSLGAHNTTLTEILKGLKFNLTETSEAEIHQSFQHLLRTLNQSSDELQLSMGNAMFVKEQLSLLDRFTEDAKRLYGSEAFATDFQDSAAAKKLINDYVKNGTRGKITDLIKDLDSQTMMVLVNYIFFKAKWEMPFDPQDTHQSRFYLSKKKWVMVPMMSLHHLTIPYFRDEELSCTVVELKYTGNASALFILPDQDKMEEVEAMLLPETLKRWRDSLEFREIGELYLPKFSISRDYNLNDILLQLGIEEAFTSKADLSGITGARNLAVSQVVHKAVLDVFEEGTEASAATAVKITLLSALVETRTIVRFNRPFLMIIVPTDTQNIFFMSKVTNPKQA
Human cathepsin G
  kassoc reported for α-1-AChy binding to human cathepsin G: 5.1e+07 M⁻¹ s⁻¹
Bovine chymotrypsin [8]
  kassoc reported for α-1-AChy binding to bovine chymotrypsin: 60000 M⁻¹ s⁻¹
Clipsin [9]
  kassoc, association rate constant of α-1-AChy with clipsin: 2.9e+06 M⁻¹ s⁻¹
Clipsin [10]
  α-1-AChy concentration producing rapid inhibition of clipsin activity: ≥ 3.5 nM
Clipsin [10]; titration curve at 120 min preincubation
  α-1-AChy necessary to inhibit 100% clipsin activity (titration point): 1.4 nM
Clipsin [3]; pilot experiments, […]
  Inhibition of clipsin activity in vitro (in words): effective inhibitor
